Measurements reported in patent publication EP3800188A1, “SUBSTITUTED PYRAZOLOPYRIMIDINES AS IRAK4 INHIBITORS” (Bayer AG, priority 2019, dated 2021).

How the values were obtained:
[1] = Metabolic stability in human liver microsomes; conditions: 1 µM compound; for CLblood, human microsomes: hepatic in vivo blood clearance calculated with well stirred liver model, '(stable)' given beside < 0.01; for Fmax, human microsomes: maximal oral bioavailability calculated with well stirred liver model, 0.5 mg/mL protein, '(stable)' given beside 100
Method: The in vitro metabolic stability of test compounds was determined by incubating them at 1 µM in a suspension liver microsomes in 100 mM phosphate buffer, pH7.4 (NaH2PO4 x H2O + Na2HPO4 x 2H2O) and at a protein concentration of 0.5 mg/mL at 37° C. The microsomes were activated by adding a co-factor mix containing 8 mM Glukose-6-Phosphat, 4 mM MgCl2, 0.5 mM NADP and 1 IU/mL G-6-P-Dehydrogenase in phosphate buffer, pH 7.4. The metabolic assay was started shortly afterwards by adding the test compound to the incubation at a final volume of 1 mL. Organic solvent in the incubations was limited to ≤0.01 % dimethylsulfoxide (DMSO) and ≤1% acetonitril. During incubation, the microsomal suspensions were continuously shaken at 580 rpm, and aliquots were taken at 2, 8, 16, 30, 45 and 60 min, to which equal volumes of cold methanol were immediately added. Samples were frozen at -20° C over night, subsequently centrifuged for 15 min at 3000 rpm and the supernatant was analyzed with an Agilent 1200 HPLC-system with LCMS/MS detection.
The half-life of a test compound was determined from the concentration-time plot. From the half-life the intrinsic clearances were calculated. Together with the additional parameters liver blood flow, specific liver weight and microsomal protein content the hepatic in vivo blood clearance (CL) and the maximal oral bioavailability (Fmax) were calculated using the "well stirred" liver model. The following parameter values were used: Liver blood flow - 1.32 L/h/kg (human), 2.1 L/h/kg (dog); specific liver weight - 21 g/kg (human), 39 g/kg (dog); microsomal protein content - 40 mg/g.

human IRAK4 = target: T1, human IRAK4 (Homo sapiens, UniProt Q9NWZ3); assay: Human IRAK4 kinase activity inhibition assay (IRAK4 TR-FRET assay); assay type: biochemical; conditions: 1 mM ATP, GST-human IRAK4, average or median values
T1 construct: GST (N); made in house; host or cells: baculovirus-infected Hi5 (BTI-TN-5B1-4) insect cells
T1 sequence (Q9NWZ3 1-460): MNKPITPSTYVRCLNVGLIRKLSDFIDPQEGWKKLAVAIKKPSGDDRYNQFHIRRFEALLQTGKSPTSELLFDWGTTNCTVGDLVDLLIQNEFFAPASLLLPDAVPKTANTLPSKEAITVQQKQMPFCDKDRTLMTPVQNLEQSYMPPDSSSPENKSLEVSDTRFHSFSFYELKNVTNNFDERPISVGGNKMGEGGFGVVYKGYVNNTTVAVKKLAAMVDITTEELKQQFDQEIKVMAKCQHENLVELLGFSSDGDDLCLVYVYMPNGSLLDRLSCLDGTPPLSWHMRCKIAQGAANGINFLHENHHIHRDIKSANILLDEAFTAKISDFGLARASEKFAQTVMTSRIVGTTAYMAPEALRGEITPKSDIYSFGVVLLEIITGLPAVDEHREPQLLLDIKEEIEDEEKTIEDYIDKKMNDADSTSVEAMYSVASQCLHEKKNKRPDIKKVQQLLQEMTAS
How it was run: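 GST-IRAK4 from insect cells (about 0.2 nM, linear range) was preincubated 15 min with compound (11 concentrations, 20 µM–0.073 nM) in HEPES pH 7.5 with MgCl2 and DTT before kinase reaction on a biotinylated peptide. Phosphopeptide was detected by TR-FRET (Eu anti-mouse-IgG/anti-phosphoserine/streptavidin-XL665, 1 h at 22°C) as the 665/620 nm ratio, normalized to no-compound and no-enzyme controls.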

Question: Which results are given for `CC1(O)CCN(C2CN(c3nc(N[C@H]4C[C@@](C)(O)C4)nc4c3cnn4-c3cccc(C(F)(F)F)c3)C2)CC1` [Example I-111, 1-(1-{6-[(cis-3-hydroxy-3-methylcyclobutyl)amino]-1-[3-(trifluoromethyl)phenyl]-1H-pyrazolo[3,4-d]pyrimidin-4-yl}azetidin-3-yl)-4-methylpiperidin-4-ol]?
Answer: CLblood, human microsomes [1]: 0.13 L/h/kg; Fmax, human microsomes [1]: 90%; IC50 (human IRAK4): 11.1 nM

Question: Which results are given for `O=C1CCCN1C1CN(c2nc(N[C@H]3C[C@@H](O)C3)nc3c2cnn3-c2cccc(C(F)(F)F)c2)C1` [Example I-112, 1-(1-{6-[(cis-3-hydroxycyclobutyl)amino]-1-[3-(trifluoromethyl)phenyl]-1H-pyrazolo[3,4-d]pyrimidin-4-yl}azetidin-3-yl)pyrrolidin-2-one]?
Answer: CLblood, human microsomes [1]: 0.39 L/h/kg; Fmax, human microsomes [1]: 71%; IC50 (human IRAK4): 3.24 nM

Question: What does the source list for `O=C1CCCN1C1CN(c2nc(N[C@H]3C[C@H](O)C3)nc3c2cnn3-c2cccc(C(F)(F)F)c2)C1` [Example I-113, 1-(1-{6-[(trans-3-hydroxycyclobutyl)amino]-1-[3-(trifluoromethyl)phenyl]-1H-pyrazolo-[3,4-d]pyrimidin-4-yl}azetidin-3-yl)pyrrolidin-2-one]?
Answer: CLblood, human microsomes [1]: 0.03 L/h/kg; Fmax, human microsomes [1]: 98%; IC50 (human IRAK4): 3.6 nM

Question: Which “CLblood, human microsomes” value [1] does the source give for `OC1(CN2CCCC2)CCN(c2nc(N[C@H]3C[C@@H](O)C3)nc3c2cnn3-c2cccc(C(F)(F)F)c2)CC1` [Example I-114, 1-{6-[(cis-3-hydroxycyclobutyl)amino]-1-[3-(trifluoromethyl)phenyl]-1H-pyrazolo[3,4-d]pyrimidin-4-yl}-4-(pyrrolidin-1-ylmethyl)piperidin-4-ol] here?
Answer: Its value is 0.21 L/h/kg.

Question: What about the “Fmax, human microsomes” value [1] of the same molecule?
Answer: The value was 84%.

Question: What about the IC50 (human IRAK4) of the same molecule?
Answer: The IC50 was 8.49 nM.

Question: For `O=C1CN(C2CN(c3nc(N[C@H]4C[C@@H](O)C4)nc4c3cnn4-c3cccc(C(F)(F)F)c3)C2)CCN1` [Example I-115, 4-(1-{6-[(cis-3-hydroxycyclobutyl)amino]-1-[3-(trifluoromethyl)phenyl]-1H-pyrazolo[3,4-d]pyrimidin-4-yl}azetidin-3-yl)piperazin-2-one], which “CLblood, human microsomes” value [1] is on record?
Answer: Its value is < 0.01 (stable) L/h/kg.

Question: What about the “Fmax, human microsomes” value [1] of the same molecule?
Answer: Its value is 100 (stable) %.

Question: And the IC50 (human IRAK4)?
Answer: The IC50 was 7.51 nM.

Question: Which “CLblood, human microsomes” value [1] does the source give for `O=C1C[C@H](Nc2nc(N3CC(N4CCOCC4)C3)c3cnn(-c4cccc(C(F)F)c4)c3n2)CN1` [II-1, (4S)-4-({1-[3-(difluoromethyl)phenyl]-4-[3-(morpholin-4-yl)azetidin-1-yl]-1H-pyrazolo[3,4-d]pyrimidin-6-yl}amino)pyrrolidin-2-one] here?
Answer: The value was < 0.01 (stable) L/h/kg.

Question: And the “Fmax, human microsomes” value [1]?
Answer: The value was 100 (stable) %.

Question: And the IC50 (human IRAK4)?
Answer: Its IC50 is 3.46 nM.

Question: With `CC(C)(O)CC1CN(c2nc(NC3CCS(=O)(=O)CC3)nc3c2cnn3-c2cccc(C(F)F)c2)C1` [II-7, 1-(1-{1-[3-(difluoromethyl)phenyl]-6-[(1,1-dioxidotetrahydro-2H-thiopyran-4-yl)amino]-1H-pyrazolo[3,4-d]pyrimidin-4-yl}azetidin-3-yl)-2-methylpropan-2-ol] as the molecule, how does the “CLblood, human microsomes” value [1] read?
Answer: The value was < 0.01 (stable) L/h/kg.

Question: And the “Fmax, human microsomes” value [1]?
Answer: Its value is 100 (stable) %.

Question: What about the IC50 (human IRAK4) of the same molecule?
Answer: Its IC50 is 5.37 nM.

Question: Which “CLblood, human microsomes” value [1] does the source give for `CS(=O)(=O)[C@H]1C[C@H](Nc2nc(N3CC(N4CCOCC4)C3)c3cnn(-c4cccc(C(F)F)c4)c3n2)C1` [II-8, 1-[3-(difluoromethyl)phenyl]-N-[trans-3-(methylsulfonyl)cyclobutyl]-4-[3-(morpholin-4-yl)azetidin-1-yl]-1H-pyrazolo[3,4-d]pyrimidin-6-amine] here?
Answer: Its value is < 0.01 (stable) L/h/kg.

Question: What about the “Fmax, human microsomes” value [1] of the same molecule?
Answer: The value was 100 (stable) %.

Question: And the IC50 (human IRAK4)?
Answer: The IC50 was 2.01 nM.

Question: Which “CLblood, human microsomes” value [1] does the source give for `O=C(CC1CN(c2nc(NC3CCS(=O)(=O)CC3)nc3c2cnn3-c2cccc(C(F)F)c2)C1)N1CCOCC1` [II-10, 2-(1-{1-[3-(difluoromethyl)phenyl]-6-[(1,1-dioxidotetrahydro-2H-thiopyran-4-yl)amino]-1H-pyrazolo[3,4-d]pyrimidin-4-yl}azetidin-3-yl)-1-(morpholin-4-yl)ethanone] here?
Answer: Its value is 0.42 L/h/kg.

Question: What about the “Fmax, human microsomes” value [1] of the same molecule?
Answer: The value was 68%.

Question: What about the IC50 (human IRAK4) of the same molecule?
Answer: Its IC50 is 4.31 nM.

Question: Which “CLblood, human microsomes” value [1] does the source give for `CC(C)(O)C1CCN(c2nc(N[C@H]3C[C@H](S(C)(=O)=O)C3)nc3c2cnn3-c2cccc(C(F)F)c2)CC1` [II-11, 2-[1-(1-[3-(difluoromethyl)phenyl]-6-{[trans-3-(methylsulfonyl)cyclobutyl]amino}-1H-pyrazolo[3,4-d]pyrimidin-4-yl)piperidin-4-yl]propan-2-ol] here?
Answer: The value was 0.25 L/h/kg.

Question: What about the “Fmax, human microsomes” value [1] of the same molecule?
Answer: Its value is 81%.

Question: What about the IC50 (human IRAK4) of the same molecule?
Answer: Its IC50 is 2.67 nM.

Question: With `CC(C)(O)CC1CN(c2nc(NC3CN(S(C)(=O)=O)C3)nc3c2cnn3-c2cccc(C(F)F)c2)C1` [II-14, 1-[1-(1-[3-(difluoromethyl)phenyl]-6-{[1-(methylsulfonyl)azetidin-3-yl]amino}-1H-pyrazolo[3,4-d]pyrimidin-4-yl)azetidin-3-yl]-2-methylpropan-2-ol] as the molecule, how does the “CLblood, human microsomes” value [1] read?
Answer: Its value is < 0.01 (stable) L/h/kg.

Question: And the “Fmax, human microsomes” value [1]?
Answer: Its value is 100 (stable) %.

Question: What about the IC50 (human IRAK4) of the same molecule?
Answer: Its IC50 is 7.01 nM.

Question: Which “CLblood, human microsomes” value [1] does the source give for `CS(=O)(=O)[C@H]1C[C@H](Nc2nc(N3C[C@H](O)[C@@H](F)C3)c3cnn(-c4cccc(C(F)F)c4)c3n2)C1` [II-16-2, (3S,4S)-1-(1-[3-(difluoromethyl)phenyl]-6-{[trans-3-(methanesulfonyl)cyclobutyl]amino}-1H-pyrazolo[3,4-d]pyrimidin-4-yl)-4-fluoropyrrolidin-3-ol] here?
Answer: The value was < 0.01 (stable) L/h/kg.

Question: What about the “Fmax, human microsomes” value [1] of the same molecule?
Answer: Its value is 100 (stable) %.

Question: What about the IC50 (human IRAK4) of the same molecule?
Answer: The IC50 was 2.82 nM.

Question: Which “CLblood, human microsomes” value [1] does the source give for `CS(=O)(=O)[C@H]1C[C@H](Nc2nc(N3C[C@@H](O)[C@H](F)C3)c3cnn(-c4cccc(C(F)F)c4)c3n2)C1` [II-16-3, (3R,4R)-1-(1-[3-(difluoromethyl)phenyl]-6-{[trans-3-(methanesulfonyl)cyclobutyl]-amino)-1H-pyrazolo[3,4-d]pyrimidin-4-yl)-4-fluoropyrrolidin-3-ol] here?
Answer: The value was 0.08 L/h/kg.

Question: And the “Fmax, human microsomes” value [1]?
Answer: Its value is 94%.

Question: What about the IC50 (human IRAK4) of the same molecule?
Answer: The IC50 was 1.62 nM.

Question: Which “CLblood, human microsomes” value [1] does the source give for `CC(C)(O)C1CCN(c2nc(N[C@H]3C[C@@]4(CCN4)C3)nc3c2cnn3-c2cccc(C(F)F)c2)CC1` [II-18, 2-(1-{6-[(4r,6s)-1-azaspiro[3.3]heptan-6-ylamino]-1-[3-(difluoromethyl)phenyl]-1H-pyrazolo[3,4-d]pyrimidin-4-yl}piperidin-4-yl)propan-2-ol] here?
Answer: Its value is 0.10 L/h/kg.

Question: What about the “Fmax, human microsomes” value [1] of the same molecule?
Answer: The value was 93%.

Question: And the IC50 (human IRAK4)?
Answer: The IC50 was 1.4 nM.

Question: With `CC(C)(O)CC1CN(c2nc(N[C@H]3C[C@H](S(C)(=O)=O)C3)nc3c2cnn3-c2cccc(C(F)F)c2)C1` [II-19, 1-[1-(1-[3-(difluoromethyl)phenyl]-6-{[trans-3-(methylsulfonyl)cyclobutyl]amino}-1H-pyrazolo[3,4-d]pyrimidin-4-yl)azetidin-3-yl]-2-methylpropan-2-ol] as the molecule, how does the “CLblood, human microsomes” value [1] read?
Answer: The value was 0.23 L/h/kg.

Question: What about the “Fmax, human microsomes” value [1] of the same molecule?
Answer: The value was 82%.

Question: What about the IC50 (human IRAK4) of the same molecule?
Answer: Its IC50 is 1.63 nM.

Question: For `CS(=O)(=O)N1CC(Nc2nc(N3CCC(C4(N)CC4)CC3)c3cnn(-c4cccc(C(F)F)c4)c3n2)C1` [II-20, 4-[4-(1-aminocyclopropyl)piperidin-1-yl]-1-[3-(difluoromethyl)phenyl]-N-[1-(methylsulfonyl)azetidin-3-yl]-1H-pyrazolo[3,4-d]pyrimidin-6-amine], which “CLblood, human microsomes” value [1] is on record?
Answer: The value was 0.04 L/h/kg.

Question: What about the “Fmax, human microsomes” value [1] of the same molecule?
Answer: The value was 97%.

Question: What about the IC50 (human IRAK4) of the same molecule?
Answer: The IC50 was 1.39 nM.

Question: For `CC1(N2CCOCC2)CN(c2nc(N[C@H]3C[C@H](S(C)(=O)=O)C3)nc3c2cnn3-c2cccc(C(F)F)c2)C1` [II-21, 1-[3-(difluoromethyl)phenyl]-4-[3-methyl-3-(morpholin-4-yl)azetidin-1-yl]-N-[trans-3-(methylsulfonyl)cyclobutyl]-1H-pyrazolo[3,4-d]pyrimidin-6-amine], which “CLblood, human microsomes” value [1] is on record?
Answer: The value was 0.07 L/h/kg.

Question: What about the “Fmax, human microsomes” value [1] of the same molecule?
Answer: Its value is 95%.

Question: And the IC50 (human IRAK4)?
Answer: Its IC50 is 1.8 nM.

Question: With `O[C@H]1C[C@@H](Nc2nc(N3CC(N4CCOCC4)C3)c3cnn(-c4cccc(C(F)F)c4)c3n2)C1` [II-24, cis-3-({1-[3-(difluoromethyl)phenyl]-4-[3-(morpholin-4-yl)azetidin-1-yl]-1H-pyrazolo[3,4-d]pyrimidin-6-yl}amino)cyclobutanol] as the molecule, how does the “CLblood, human microsomes” value [1] read?
Answer: Its value is < 0.01 (stable) L/h/kg.

Question: And the “Fmax, human microsomes” value [1]?
Answer: Its value is 100 (stable) %.

Question: What about the IC50 (human IRAK4) of the same molecule?
Answer: The IC50 was 5.65 nM.
